Measurements as given in patent US11484529B2, “Desmethylanethole trithione derivatives for the treatment of diseases linked to mitochondrial reactive oxygen species (ROS) production” (OP2 Drugs, priority 2017, dated 2022).

Assays:
[1] = test system: H460 carcinoma cells; test: Transwell cell migration (metastatic activity); assay type: cell-based, human; details: 100 μM NAC, 16 hours
Description: Cell migration assays were performed in Transwells (Corning Inc., 8.0-μm pore size). For migration assay, 2·10^4 cells in serum-free medium were added to the upper wells. Media containing 10% FBS were added to the lower wells. Cells that migrated through the filter after 16 hours were stained with 0.2% crystal violet and counted using the software Image J.
The Transwell test of cell migration has been utilized for this assay and the migration of H460 carcinoma cells has been measured in the presence of two different concentrations of AOX (5 and 10 μM) and compared to the effect of 100 μM N-acetyl cystein (NAC) as a positive control of cytosolic ROS production (FIG. 25).

[2] = test system: site IQ; test: ROS/H2O2 production, site targeted individually (96-well Amplex Red), 10 mM succinate alone; assay type: biochemical, rat; details: 0 to 80 μM; effect at concentrations as low as 2.5 μM
Description: After freshly isolating mitochondria from rat heart, then measuring protein quantity of the mitochondrial suspension, H2O2 production in response to the exogenous addition of increasing concentrations of AOL, AOX and Oltipraz was measured fluorimetrically with Amplex Red and horseradish peroxidase (HRP).
The two major sites of mitochondrial ROS/H2O2 production were targeted individually using the combination of succinate (energy substrate of respiratory complex 2) and known inhibitors of respiratory chain, namely for site IQ, 10 mM succinate alone (CCCP as positive control) and for site IIIQouter, 10 mM succinate, 4 μM rotenone and 2.5 μM antimycin A (myxothiazol as positive control). These “reaction” solutions were designed to generate maximal rates of ROS/H2O2 production predominantly from a single site within the chain (Quinlan et al. 2013. Redox Biol. 1:304-12).
For measurement, a working solution of 50 μM Amplex red reagent and 20 μg/ml HRP was mixed to the reaction buffer into the corresponding wells of a 96-well plate (Greiner 96 F-bottom), in the absence or presence of increasing concentrations (from 0 to 80 μM) of AOL, AOX or Oltipraz. Addition of mitochondria to a final concentration of 0.125 mg/mL per well initiated the assay. The appropriate total volume per microplate well was 200 μL.
Plates were incubated in the dark at room temperature for 20-25 minutes. A double orbital shaking (100 rpm-3 seconds) was applied before reading the endpoint fluorescence values on a CLARIOstar plate reader (BMG LABTECH GmbH, Germany). In fact, H2O2 reacts with Amplex Red in a 1:1 stoichiometry, yielding the fluorescent compound resorufin that was analyzed using the following optic settings (excitation wavelength at 546-20 nm; emission at 600-40 nm; gain: 750).
Also, an H2O2 standard curve, with concentrations ranging from 0 to 5 μM, was prepared in the experimental buffer that consisted in (in mM): 140 sucrose, 100 KCl, 1 EGTA, 20 MgCl2, 10 KH2PO4, and 1 g/L (w/v) BSA essentially fatty acid free (pH 7.2). […]

[3] = test system: NAD(P)H oxidase; test: Non-mitochondrial ROS/H2O2 production by NAD(P)H oxidase (Amplex Red); assay type: biochemical; details: 10 to 100 μM; no mitochondria
Description: Rates of ROS/H2O2 production from heart mitochondria were assessed through the oxidation of the colorless, non-fluorescent indicator Amplex Red in the presence of exogenous horseradish peroxidase (HRP, EC 1.11.1.7, Sigma). H2O2 reacts with Amplex Red in a 1:1 stoichiometry, yielding the fluorescent compound resorufin (excitation: 560 nm; emission: 585 nm) which is stable once formed. Fluorescence was measured continuously with a spectro-fluorometer equipped with temperature control and stirring (SAFAS Xenius, Monaco). Isolated mitochondria (0.1 mg/mL) were incubated in the same experimental buffer than previously, supplemented with 15 μM Amplex Red and 10 μg/mL HRP. Glutamate (5 mM)/malate (2.5 mM) together with succinate (5 mM) were used as complex I and complex II substrates, respectively. Experiments were conducted under non-phosphorylating conditions in the presence of 15 μM atractyloside, i.e., under state IV conditions where […]. Afterwards, rotenone (1.5 μM), antimycin A (2 μM), and myxothiazol (0.2 μM) were sequentially added to inhibit the redox centers within the electron transfer chain (FIG. 2), namely sites IQ, IF (with rotenone), IIIQi (with antimycin A) and IIIQO (with myxothiazol). Assay was finally calibrated with known amounts of H2O2 (steps of 300 nM), in the presence of all relevant compounds, including AOL. The control test of the absence of effect of AOL on the Amplex Red assay itself and NAD(P)H oxidase ROS/H2O2 production was carried out in the absence of cardiac mitochondria and the presence of NAD(P)H oxidase (EC 1.6.3.3, 5 mU/mL, Sigma) and NADH (100 μM) solutions.
The specificity of AOL was further tested in vitro using the peroxidase-Amplex Red system utilized for the measurement of ROS/H2O2 by mitochondria, which in fact measures the appearance of H2O2 by the oxidation of Amplex Red to the fluorescent resorufin (see FIG. 4). In the absence of mitochondria and by adding instead a H2O2-producing system to the measuring system, it was possible to test the effect of AOL on this system. This has been carried out by using commercial NAD(P)H oxidase which produces H2O2 in the presence of added NAD(P)H and measuring the reduction of Amplex Red to resorufin (FIG. 4).
Isolated mitochondria (0.1 mg/mL) were incubated in the same experimental buffer than previously, supplemented with 15 μM Amplex Red and 10 μg/mL HRP. Glutamate (5 mM)/malate (2.5 mM) together with succinate (5 mM) were used as complex I and complex II substrates, respectively. Experiments were conducted under non-phosphorylating conditions in the presence of 15 μM atractyloside. Afterwards, rotenone (1.5 μM), antimycin A (2 μM), and myxothiazol (0.2 μM) were sequentially added to inhibit the redox centers within the electron transfer chain (see FIG. 2), namely sites IQ, IF (with rotenone), IIIQi (with antimycin A) and IIIQO (with myxothiazol). Assay was finally calibrated with known amounts of H2O2 (steps of 300 nM), in the presence of all relevant compounds, including AOX. The control test of the absence of effect of AOL, AOX and Oltipraz on the Amplex Red assay itself and NAD(P)H oxidase […] production was carried out in the absence of cardiac mitochondria and the presence of NAD(P)H oxidase (EC 1.6.3.3, 5 mU/mL, Sigma) and NADH (100 μM) solutions.
The mechanism of action of AOX was further tested in vitro using the peroxidase-Amplex Red system utilized for the measurement of ROS/H2O2 by mitochondria, which in fact measures the appearance of H2O2 by the oxidation of Amplex Red to the fluorescent resorufin (FIG. 22). In the absence of mitochondria and by adding instead a H2O2-producing system to the assay, it was possible to test the effect of AOX on this non-mitochondrial superoxide/H2O2 production. This has been carried out by using commercial NAD(P)H oxidase which produces H2O2 in the presence of added NAD(P)H and measuring the reduction of Amplex Red to resorufin. […]

SMILES	metastatic activity (cells crossing the membrane) [1]	inhibition of ROS production in site IQ [2]	effect on ROS measurement with NAD(P)H oxidase [3]
CC(=O)N[C@@H](CS)C(=O)O [NAC, N-acetyl cysteine]	huge increase in metastatic activity		
Cc1c(-c2cnccn2)ssc1=S [Oltipraz]		only a poor effect	constantly decreased the amount of ROS measured
